In the supplement of paper PMC11061612:

Tests used:
[1] = tested on: HCC38 (Breast Carcinoma); test: combination Emax (second highest fraction inhibited in the dose matrix, 72 h); higher = more inhibition; extreme values may be limits of the assay
Method in brief: (§1)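 Cell lines grown in DMEM/F12 or RPMI with 10% FBS were plated in 1536-well plates and held 24 hours at 37°C, 5% CO2 before 72 hours of exposure to two-drug dose matrices, with DMSO typically at 0.2%. CellTiter-Glo 2.0 luminescence gave viability, which was converted to inhibition. Vehicle wells were set to 0 and blank wells to 1. Combination Emax is the second-highest inhibition in the matrix, and Bliss excess is the observed combination effect minus the expected EA + EB − EA·EB, where EA and EB are the single-agent effects.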

[2] = tested on: BICR78 (Oral Cavity Carcinoma); test: as above
Method in brief: as §1

[3] = tested on: HLE (Hepatocellular Carcinoma); test: as above
Method in brief: as §1

[4] = tested on: MES-SA (Other Solid Carcinomas); test: as above
Method in brief: as §1

[5] = tested on: SK-MEL-1 (Melanoma); test: as above
Method in brief: as §1

[6] = tested on: PA-TU-8902 (Pancreatic Carcinoma); test: as above
Method in brief: as §1

[7] = tested on: HuO9 (Osteosarcoma); test: as above
Method in brief: as §1

[8] = tested on: JHH-6 (Hepatocellular Carcinoma); test: as above
Method in brief: as §1

[9] = tested on: A172 (Glioblastoma); test: as above
Method in brief: as §1

[10] = tested on: MEG-01 (Chronic Myelogenous Leukemia); test: as above
Method in brief: as §1

[11] = tested on: SLVL (B-Cell Non-Hodgkin's Lymphoma); test: as above
Method in brief: as §1

[12] = tested on: NOMO-1 (Acute Myeloid Leukemia); test: as above
Method in brief: as §1

[13] = tested on: HCT-116 (Colorectal Carcinoma); test: as above
Method in brief: as §1

[14] = tested on: MSTO-211H (Mesothelioma); test: as above
Method in brief: as §1

[15] = tested on: HLE (Hepatocellular Carcinoma); test: Bliss excess, mean over the matrix (fraction); higher = more synergy
Method in brief: as §1

[16] = tested on: SK-UT-1 (Other Solid Carcinomas); test: as above
Method in brief: as §1

[17] = tested on: SW48 (Colorectal Carcinoma); test: as above
Method in brief: as §1

[18] = tested on: D-392MG (Glioblastoma); test: as above
Method in brief: as §1

[19] = tested on: SNU-61 (Colorectal Carcinoma); test: as above
Method in brief: as §1

[20] = tested on: SLVL (B-Cell Non-Hodgkin's Lymphoma); test: as above
Method in brief: as §1
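For Bliss excess, mean over the matrix in this document: after 72 h of two-drug dosing.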

SMILES	combination Emax [1]	combination Emax [2]	combination Emax [3]	combination Emax [4]	combination Emax [5]	combination Emax [6]	combination Emax [7]	combination Emax [8]	combination Emax [9]	combination Emax [10]	combination Emax [11]	combination Emax [12]	combination Emax [13]	combination Emax [14]	Bliss excess [15]	Bliss excess [16]	Bliss excess [17]	Bliss excess [18]	Bliss excess [19]	Bliss excess [20]
NC1(C(=O)N[C@@H](CCO)c2ccc(Cl)cc2)CCN(c2ncnc3[nH]ccc23)CC1 [Capivasertib] + C[C@@H]1COCCN1C2=NC(=NC(=C2)C3(CC3)[S@](=N)(=O)C)C4=C5C=CNC5=NC=C4 [AZD6738] (first compound max 10 µM, 7x7, partner max 10 µM)	0.621	0.628	0.605	0.721	0.296	0.544	0.79	0.506	0.779	0.945	0.845	0.968	0.765	0.304	-0.038	-0.0983	-0.0387	-0.0393	-0.0316	-0.0936
NC1(C(=O)N[C@@H](CCO)c2ccc(Cl)cc2)CCN(c2ncnc3[nH]ccc23)CC1 [Capivasertib] + COc1nnc2ccc(N3CCC(c4ccc(OCCN5CCN(C)C(=O)[C@H]5C)cc4)CC3)nn12 [AZD5153] (first compound max 10 µM, 7x7, partner max 1 µM)	0.461	0.636	0.389	0.621	0.681	0.326	0.841	0.645	0.472	0.877	0.764	1	0.813	0.258	-0.0096	0.0637	-0.0226	-0.015	-0.01	-0.102
CN(CCO)CC[C@H](CSc1ccccc1)Nc1ccc(S(=O)(=O)NC(=O)c2ccc(N3CCC([C@@H](O)c4ccccc4-c4ccc(Cl)cc4)CC3)cc2)cc1S(=O)(=O)C(F)(F)F [AZD4320] + Cc1cc2ncnn2cc1Nc1ncc2c(n1)n(C1CCOCC1)c(=O)n2C [AZD7648] (first compound max 1 µM, 7x7, partner max 10 µM)	0.873	0.198	0.33	0.226	0.606	0.144	0.77	0.174	0.262	0.925	0.605	0.475	0.229	0.327	-0.0295	-0.0195	0.0314	-0.0614	-0.0254	0.0119
CN(C)CCCOc1ccc(-c2ccc3ncc4c(c3c2)n(C2CCOCC2)c(=O)n4C)cn1 [AZD0156] + C=CCn1c(=O)c2cnc(Nc3ccc(N4CCN(C)CC4)cc3)nc2n1-c1cccc(C(C)(C)O)n1 [AZD1775] (first compound max 1 µM, partner max 1 µM)	0.505	0.311	0.747	0.768	0.442	0.252	0.709	0.148	0.53	0.883	0.904	0.96	0.494	0.667	-0.026	-0.0346	-0.0172	-0.0461	-0.0277	-0.0203
CC1(C)CCC(CN2CCN(c3ccc(C(=O)NS(=O)(=O)c4ccc(NCC5CCOCC5)c([N+](=O)[O-])c4)c(Oc4cnc5[nH]ccc5c4)c3)CC2)=C(c2ccc(Cl)cc2)C1 [Venetoclax] + Cc1cc2ncnn2cc1Nc1ncc2c(n1)n(C1CCOCC1)c(=O)n2C [AZD7648] (first compound max 1 µM, 7x7, partner max 10 µM)	0.165	0.265	0.215	0.302	0.308	0.236	0.426	0.212	0.334	0.737	0.709	0.922	0.259	0.22	-0.024	-0.0119	0.0327	-0.0374	0.0023	0.0013
CCN(CCO)CCCOc1ccc2c(Nc3cc(CC(=O)Nc4cccc(F)c4)[nH]n3)ncnc2c1 [AZD2811] + C=CCn1c(=O)c2cnc(Nc3ccc(N4CCN(C)CC4)cc3)nc2n1-c1cccc(C(C)(C)O)n1 [AZD1775] (first compound max 1 µM, partner max 1 µM)	0.489	0.264	0.935	0.767	0.353	0.222	0.686	0.223	0.603	0.863	0.889	0.932	0.547	0.618	0.09	0.108	-0.013	-0.0945	0.0108	-0.04
NC1(C(=O)N[C@@H](CCO)c2ccc(Cl)cc2)CCN(c2ncnc3[nH]ccc23)CC1 [Capivasertib] + Cn1cnc2c(F)c(Nc3ccc(Br)cc3Cl)c(C(=O)NOCCO)cc21 [Selumetinib] (first compound max 10 µM, 7x7, partner max 10 µM)	0.29	0.548	0.236	0.496	0.874	0.557	0.509	0.458	0.48	0.825	0.806	0.948	0.877	0.379	0.0365	0.0843	-0.0453	-0.0202	0.025	-0.0251
CCc1c2c(nc3ccc(O)cc13)-c1cc3c(c(=O)n1C2)COC(=O)[C@]3(O)CC [SN-38] + CN(C)CCCOc1ccc(-c2ccc3ncc4c(c3c2)n(C2CCOCC2)c(=O)n4C)cn1 [AZD0156] (first compound max 0.3 µM, 7x7, partner max 1 µM)	0.682	0.786	0.916	0.782	0.538	0.413	0.989	0.326	0.81	0.73	0.972	0.98	0.826	0.804	-0.0434	0.0533	0.098	0.0957	-0.0134	0.0191
Cc1c2c(nn1C)CSCc1cc(n(C)n1)CSc1cc(c3ccccc3c1)OCCCc1c(C(=O)O)n(C)c3c-2c(Cl)ccc13 [AZD5991] + C1CN(CCC1(C(=O)N[C@@H](CCO)C2=CC=C(C=C2)Cl)N)C3=NC=NC4=C3C=CN4 [Capivasertib] (first compound max 1 µM, 7x7, partner max 3 µM)	0.506	0.266	0.279	0.367	0.118	0.174	1	0.278	0.234	0.361	0.567	0.909	0.24	0.245	0.0341	0.0297	-0.034	0.0557	-0.0174	0.004
CS(=O)(=O)CCNCc1ccc(-c2ccc3ncnc(Nc4ccc(OCc5cccc(F)c5)c(Cl)c4)c3c2)o1 [Lapatinib] + C[C@@H](Oc1cc(-c2cnn(C3CCNCC3)c2)cnc1N)c1c(Cl)ccc(F)c1Cl [Crizotinib] (first compound max 10 µM, 7x7, partner max 10 µM)	0.556	0.918	0.537	0.813	0.954	0.775	0.982	0.683	0.941	0.992	0.65	0.828	0.956	0.263	-0.072	-0.0392	-0.0662	-0.0528	0.0198	-0.0518
Cn1cnc2c(F)c(Nc3ccc(Br)cc3Cl)c(C(=O)NOCCO)cc21 [Selumetinib] + C[C@@H]1COCCN1C2=NC(=NC(=C2)C3(CC3)[S@](=N)(=O)C)C4=C5C=CNC5=NC=C4 [AZD6738] (first compound max 10 µM, 7x7, partner max 10 µM)	0.373	0.592	0.404	0.601	0.922	0.357	0.726	0.445	0.549	0.975	0.671	0.994	0.8	0.396	-0.0665	-0.0511	-0.017	0.0013	0.065	-0.107
COc1cccc2c1C(=O)c1c(O)c3c(c(O)c1C2=O)C[C@@](O)(C(=O)CO)C[C@@H]3O[C@H]1C[C@H](N)[C@H](O)[C@H](C)O1 [Doxorubicin] + Cc1cc2ncnn2cc1Nc1ncc2c(n1)n(C1CCOCC1)c(=O)n2C [AZD7648] (first compound max 1 µM, 7x7, partner max 10 µM)	0.555	0.748	0.812	0.826	0.593	0.372	0.897	0.496	0.94	0.867	0.975	0.966	0.918	0.813	0.0309	0.093	0.0535	0.0458	-0.0124	0.0656
CN(CCO)CC[C@H](CSc1ccccc1)Nc1ccc(S(=O)(=O)NC(=O)c2ccc(N3CCC([C@@H](O)c4ccccc4-c4ccc(Cl)cc4)CC3)cc2)cc1S(=O)(=O)C(F)(F)F [AZD4320] + C=CCn1c(=O)c2cnc(Nc3ccc(N4CCN(C)CC4)cc3)nc2n1-c1cccc(C(C)(C)O)n1 [AZD1775] (first compound max 1 µM, partner max 1 µM)	0.903	0.304	0.871	0.865	0.584	0.296	0.949	0.271	0.491	0.994	0.966	0.97	0.572	0.933	0.0906	0.0431	0.038	0.0474	-0.0175	0.0422
